From US20110212834A1, “Pesticidal Compound Mixtures” (BAYER CROPSCIENCE AG, priority 2009, published 2011)

How the values were obtained:
Type in all cases: in vivo
Details in all cases: 144 h, single compound, after 6 d
Myzus persicae = Myzus persicae test, spray treatment of infested cabbage leaves
Description: (§1) To produce a suitable preparation of active compound, 1 part by weight of active compound is mixed with the stated amount of solvent and emulsifier, and the concentrate is diluted with emulsifier-containing water to the desired concentration.
Cabbage leaves (Brassica oleracea) which are heavily infested by the green peach aphid (Myzus persicae) are treated by being sprayed with the preparation of the active compound at the desired concentration.
After the specified period of time, the mortality in % is determined. 100% means that all the aphids have been killed; 0% means that none of the aphids have been killed.

Spodoptera frugiperda = Spodoptera frugiperda test, sprayed cabbage leaves
Description: as §1
Cabbage leaves (Brassica oleracea) are treated by being sprayed with the preparation of the active compound at the desired concentration and are infested with larvae of the fall army worm (Spodoptera frugiperda) as long as the leaves are still moist.
(§2) After the specified period of time, the mortality in % is determined. 100% means that all the caterpillars have been killed; 0% means that none of the caterpillars have been killed. According to the present application in this test e.g. the following combinations show a synergistic effect in comparison to the single compounds: […]

Phaedon cochleariae = Phaedon cochleariae larvae test, sprayed cabbage leaves
Description: as §1
Cabbage leaves (Brassica oleracea) are treated by being sprayed with the preparation of the active compound at the desired concentration and are infested with larvae of the mustard beetle (Phaedon cochleariae) as long as the leaves are still moist.
as §2, with “beetle larvae” for “caterpillars”

Tetranychus urticae = experiment: Tetranychus test (OP-resistant), sprayed bean plants
Description: as §1
Bean plants (Phaseolus vulgaris) which are heavily infested with all stages of the two-spotted spider mite (Tetranychus urticae) are treated by being sprayed with the preparation of the active compound at the desired concentration.
After the specified period of time, mortality in % is determined. 100% means that all the spider mites have been killed; 0% means that none of the spider mites have been killed.

Compound | mortality at 500 g/ha (Myzus persicae) [%] | mortality at 500 g/ha (Spodoptera frugiperda) [%] | mortality at 500 g/ha (Phaedon cochleariae) [%] | further results
CC(C)C1CCC(Cc2ccc(Cl)cc2)C1(O)Cn1cncn1 (stereo not drawn) [Ipconazole, ipconazole] | 0 | 0 | 0 | 
CC1(C)[C@H](C=C(Cl)Cl)[C@H]1C(=O)OCc1c(F)c(F)cc(F)c1F [Transfluthrin] |  |  |  | mortality at 20 g/ha (Myzus persicae; 20 g/ha): 0%; mortality at 100 g/ha (Myzus persicae; 100 g/ha): 80%; mortality at 4 g/ha (Spodoptera frugiperda; 4 g/ha): 50%; mortality at 20 g/ha (Phaedon cochleariae; 20 g/ha): 0%; mortality at 100 g/ha (Tetranychus urticae; 100 g/ha): 0%
CC(C)(C)C(O)(CCc1ccc(Cl)cc1)Cn1cncn1 (stereo not drawn) [Tebuconazole, tebuconazole] | 0 | 0 | 0 | 
CC(C1CC1)C(O)(Cn1cncn1)c1ccc(Cl)cc1 (stereo not drawn) [Cyproconazole, cyproconazole] | 0 |  | 0 | mortality at 500 g/ha (Tetranychus urticae; 500 g/ha): 0%
OC(Cc1ccccc1Cl)(Cn1nc[nH]c1=S)C1(Cl)CC1 (stereo not drawn) [Prothioconazole] | 0 |  |  | 
